The source of these data is patent US8883963B2 (Cadila Healthcare Limited, priority 2007, dated 2014).

Bounds are passed on as bounds.

Data set [1] relates to RIN5F (Rat Insulinoma) cells. Kind of data set: In vitro glucose-dependent insulin secretion (RIN5F cell assay screening protocol). The settings on record: 16.7 mM glucose load. In kind it is cell-based.
Data set [2] has as its target T1, Human GLP-1 receptor (Homo sapiens, UniProt P43220).
T1 construct: The full-length cDNA was cloned in pcDNA3.1(+); expressed in transfected cells
Nature of the data set: In vitro Human GLP-1 R agonist activity (cyclic AMP determination) in CHO/human GLP1R cells. In kind it is cell-based.

For data set [3], the target named is T2, human glucagon receptor (Homo sapiens, UniProt P47871).
T2 construct: The full-length cDNA was cloned in pcDNA3.1 (Invitrogen); expressed in transfected cells
Nature of the data set: In vitro human glucagon antagonist activity (inhibition of cAMP production) in CHO/human glucagon R cells. In kind it is cell-based. The settings on record: with saturated concentration of glucagon peptide.

For data set [4], the target named is DPP IV (Homo sapiens, UniProt P27487). Nature of the data set: Stability against DPP IV enzyme. In kind it is in vitro ADME. Particulars: 37° C.; for % degradation of peptidomimetics in 24 h when incubated with DPP-IV enzyme: 2 μM peptidomimetic; for half-life at 2 μM: DPP IV enzyme, pH 7.8, 2 μM peptidomimetic, read-out: half-life (t1/2) when incubated with DPP-IV enzyme. As for the experimental part:
(§1) Reactions were terminated by the addition of TFA/H2O (15 mL, 10% (v/v)). […] The column was equilibrated with TFA/H20, at a flow rate of 1 mL/min.

A short description of data set [5]: Stability in human plasma. In kind it is in vitro ADME. Particulars: 2 μM peptidomimetic, pooled human plasma, 37° C.; for half-life at 2 μM: pH 7.8, read-out: half-life (t1/2) when incubated with human plasma. As for the experimental part:
as §1

The nature of data set [6]: Stability in simulated gastric fluid. In kind it is in vitro ADME. The settings on record: 2 μM peptidomimetic, simulated gastric fluid pH 1.5, 37° C.; for half-life at 2 μM: read-out: half-life (t1/2) when incubated with simulated gastric fluid. As for the experimental part: as §1
Data set [7] can be described thus: Stability in simulated intestinal fluid. In kind it is in vitro ADME. Particulars: 2 μM peptidomimetic, simulated intestinal fluid pH 7.5, 37° C.; for half-life at 2 μM: read-out: half-life (t1/2) when incubated with simulated intestinal fluid. The procedure: as §1
Data set [8] can be described thus: Stability in liver microsomes. In kind it is in vitro ADME. The settings on record: 2 μM peptidomimetic, human liver microsomes, 37° C.; for half-life at 2 μM: pH 7.8, read-out: half-life (t1/2) when incubated with liver microsomes. The procedure: as §1

Chain of DPP IV (P27487 whole entry, species assumed): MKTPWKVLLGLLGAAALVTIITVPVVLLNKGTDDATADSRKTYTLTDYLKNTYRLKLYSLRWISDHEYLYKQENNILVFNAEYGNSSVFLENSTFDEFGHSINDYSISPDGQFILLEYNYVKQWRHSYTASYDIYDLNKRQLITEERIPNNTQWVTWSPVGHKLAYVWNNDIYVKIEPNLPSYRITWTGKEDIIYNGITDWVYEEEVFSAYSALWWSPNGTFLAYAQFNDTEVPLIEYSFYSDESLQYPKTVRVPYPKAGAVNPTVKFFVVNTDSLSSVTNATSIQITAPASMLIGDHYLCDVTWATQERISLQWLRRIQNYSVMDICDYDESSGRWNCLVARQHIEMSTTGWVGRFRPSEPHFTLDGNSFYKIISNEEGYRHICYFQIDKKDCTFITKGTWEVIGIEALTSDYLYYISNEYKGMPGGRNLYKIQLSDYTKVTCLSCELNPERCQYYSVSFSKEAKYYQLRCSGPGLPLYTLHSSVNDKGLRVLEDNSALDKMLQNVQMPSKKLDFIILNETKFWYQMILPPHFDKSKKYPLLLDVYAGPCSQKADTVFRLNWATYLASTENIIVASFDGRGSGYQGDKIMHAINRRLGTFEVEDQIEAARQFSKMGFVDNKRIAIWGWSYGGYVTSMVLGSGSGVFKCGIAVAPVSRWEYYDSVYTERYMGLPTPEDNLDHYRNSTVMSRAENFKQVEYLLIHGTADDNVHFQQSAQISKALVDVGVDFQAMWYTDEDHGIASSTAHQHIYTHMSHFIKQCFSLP
T1 sequence (P43220 24-463): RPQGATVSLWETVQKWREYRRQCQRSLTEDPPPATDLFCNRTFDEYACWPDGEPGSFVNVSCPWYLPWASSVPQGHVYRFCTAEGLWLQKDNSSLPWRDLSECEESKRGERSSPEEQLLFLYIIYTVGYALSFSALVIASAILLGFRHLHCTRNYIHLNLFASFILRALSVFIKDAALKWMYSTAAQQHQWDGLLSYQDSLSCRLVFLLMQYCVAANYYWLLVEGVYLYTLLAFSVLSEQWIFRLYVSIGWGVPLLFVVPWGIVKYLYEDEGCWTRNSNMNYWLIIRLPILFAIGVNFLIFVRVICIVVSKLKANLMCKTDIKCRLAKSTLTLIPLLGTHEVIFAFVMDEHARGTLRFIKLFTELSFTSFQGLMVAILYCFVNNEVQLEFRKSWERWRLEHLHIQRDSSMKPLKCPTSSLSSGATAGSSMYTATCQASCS
T2 sequence (P47871 26-477): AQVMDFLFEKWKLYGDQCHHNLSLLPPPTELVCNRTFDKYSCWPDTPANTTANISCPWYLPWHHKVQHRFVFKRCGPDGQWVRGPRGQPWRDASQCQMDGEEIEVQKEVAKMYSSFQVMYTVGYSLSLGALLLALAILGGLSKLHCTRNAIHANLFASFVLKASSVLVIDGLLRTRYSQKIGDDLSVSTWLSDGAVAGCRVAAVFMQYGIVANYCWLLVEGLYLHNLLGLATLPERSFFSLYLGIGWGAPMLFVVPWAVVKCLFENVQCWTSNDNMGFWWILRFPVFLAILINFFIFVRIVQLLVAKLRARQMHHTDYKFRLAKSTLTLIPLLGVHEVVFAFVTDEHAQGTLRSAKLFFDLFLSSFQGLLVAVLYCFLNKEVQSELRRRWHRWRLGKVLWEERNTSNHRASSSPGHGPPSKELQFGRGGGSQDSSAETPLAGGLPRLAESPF

In the case of `CCc1cc(OC)ccc1-c1ccc(CC(NC(=O)[C@H](CC(=O)O)NC(=O)[C@H](CO)NC(=O)[C@@H](NC(=O)[C@H](Cc2ccccc2)NC(=O)[C@@H](NC(=O)CNC(=O)C(CCC#N)NC(=O)C(C)(C)NC(=O)[C@@H](N)Cc2c[nH]cn2)[C@@H](C)O)[C@@H](C)O)C(=O)NC(CCCc2ccc(OC)cc2Cl)C(N)=O)cc1` (single isomer, unassigned) [compound 84], the Insulin secretion in data set [1] (0.1 nM test compd.) amounted to 12.1 ± 0.42 pg/µg/h; in data set [1] (1 nM test compd.) it was 14.6 ± 0.41 pg/µg/h; in data set [1] (10 nM test compd.), 27.8 ± 0.46 pg/µg/h. For the same molecule, the “Human GLP-1 R activity (cAMP release), % activity with respect to control” value came out at 38 ± 0.11% in data set [2] (1 nM test compound); 77 ± 0.16% in data set [2] (10 nM test compound); 85 ± 0.11% in data set [2] (100 nM test compound); 94 ± 0.08% in data set [2] (1 μM test compound); 97 ± 0.05% in data set [2] (10 μM test compound). The “Human Glucagon receptor antagonistic activity shown as inhibition of cAMP production of Glucagon peptide” value in data set [3] (1 nM test compound) turned out to be 4 ± 0.01 pmol/ml/μg prt; in data set [3] (10 nM test compound) it was 2 ± 0.17 pmol/ml/μg prt; in data set [3] (100 nM test compound), 0 pmol/ml/μg prt; in data set [3] (1 μM test compound), 0 pmol/ml/μg prt; in data set [3] (10 μM test compound) it was 0 pmol/ml/μg prt. For the same molecule, in data set [4], the “% degradation of peptidomimetics in 24 h when incubated with DPP-IV enzyme” value (shortened to “% degradation … with DPP-IV enzyme”) worked out at 00%. For the same molecule, the half-life at 2 μM in data set [4] is above 24 h; in data set [5], above 24 h; in data set [6] it was 4 h; in data set [7], above 24 h; in data set [8], 2 h. Moreover, the “% degradation of peptidomimetics in 24 h when incubated with human plasma” value (shortened to “% degradation … with human plasma”) in data set [5] stood at 00%. Besides, in data set [6], the “% degradation of peptidomimetics in 24 h when incubated with simulated gastric fluid” value (from here on “% degradation … with simulated gastric fluid”) is 45%. Also, the “% degradation of peptidomimetics in 24 h when incubated with simulated intestinal fluid” value (“% degradation … with simulated intestinal fluid” below) in data set [7] is given as 00%. Moreover, the “% degradation of peptidomimetics in 24 h when incubated with liver microsomes” value (from here on “% degradation … with liver microsomes”) in data set [8] was determined as 85%.

Regarding `CCc1cc(OC)ccc1-c1ccc(CC(NC(=O)[C@H](CC(=O)O)NC(=O)[C@H](CO)NC(=O)[C@@H](NC(=O)C(C)(Cc2ccccc2F)NC(=O)[C@@H](NC(=O)CNC(=O)C(CCC#N)NC(=O)C(C)(C)NC(=O)[C@@H](N)Cc2c[nH]cn2)[C@H](C)O)[C@H](C)O)C(=O)N(C)C(CCCc2ccccc2)C(N)=O)cc1` (single isomer, unassigned) [compound 130], the Insulin secretion in data set [1] (0.1 nM test compd.) amounted to 17.1 ± 0.11 pg/µg/h; in data set [1] (1 nM test compd.), 23.1 ± 0.16 pg/µg/h; in data set [1] (10 nM test compd.), 37.0 ± 0.29 pg/µg/h. The “Human GLP-1 R activity (cAMP release), % activity with respect to control” value turned out to be 39 ± 0.10% in data set [2] (1 nM test compound); 81 ± 0.08% in data set [2] (10 nM test compound); 89 ± 0.09% in data set [2] (100 nM test compound); 96 ± 0.11% in data set [2] (1 μM test compound); 99 ± 0.16% in data set [2] (10 μM test compound). Besides, the “Human Glucagon receptor antagonistic activity shown as inhibition of cAMP production of Glucagon peptide” value in data set [3] (1 nM test compound) amounted to 5 ± 0.04 pmol/ml/μg prt; in data set [3] (10 nM test compound), 3 ± 0.02 pmol/ml/μg prt; in data set [3] (100 nM test compound), 1 ± 0.11 pmol/ml/μg prt; in data set [3] (1 μM test compound) it was 0 pmol/ml/μg prt; in data set [3] (10 μM test compound) it was 0 pmol/ml/μg prt. Further, the “% degradation … with DPP-IV enzyme” value in data set [4] is 76%. For the same molecule, the results for the half-life at 2 μM in data set [4], in data set [5] and in data set [8] were 9 h, 8 h and 1 h, respectively. Further, in data set [5], the “% degradation … with human plasma” value is 78%. Moreover, the “half-life (t1/2) when incubated with simulated gastric fluid” value in data set [6] is “(8) h”. In data set [6], the “% degradation … with simulated gastric fluid” value is 12%. Besides, the “half-life (t1/2) when incubated with simulated intestinal fluid” value in data set [7] is “(6) h”. For the same molecule, the “% degradation … with simulated intestinal fluid” value in data set [7] is 55%. In data set [8], the “% degradation … with liver microsomes” value was 79%.

Regarding `CCc1cc(OC)ccc1-c1ccc(CC(NC(=O)[C@H](CC(=O)O)NC(=O)[C@H](CO)NC(=O)[C@@H](NC(=O)C(C)(Cc2ccccc2F)NC(=O)[C@@H](NC(=O)CNC(=O)C(CCC#N)NC(=O)C(C)(C)NC(=O)[C@@H](N)Cc2c[nH]cn2)[C@H](C)O)[C@H](C)O)C(=O)NC(CCCc2ccccc2)C(N)=O)cc1` (single isomer, unassigned) [compound 114], the Insulin secretion in data set [1] (0.1 nM test compd.) came out at 16.6 ± 0.41 pg/µg/h; in data set [1] (1 nM test compd.), 22.9 ± 0.32 pg/µg/h; in data set [1] (10 nM test compd.), 36.6 ± 0.19 pg/µg/h. The “Human GLP-1 R activity (cAMP release), % activity with respect to control” value is recorded as 82 ± 0.22% in data set [2] (1 nM test compound); 87 ± 0.12% in data set [2] (10 nM test compound); 92 ± 0.14% in data set [2] (100 nM test compound); 99 ± 0.22% in data set [2] (1 μM test compound); 99 ± 0.26% in data set [2] (10 μM test compound). Moreover, the “Human Glucagon receptor antagonistic activity shown as inhibition of cAMP production of Glucagon peptide” value in data set [3] (1 nM test compound) stood at 4 ± 0.02 pmol/ml/μg prt; in data set [3] (10 nM test compound), 2 ± 0.15 pmol/ml/μg prt; in data set [3] (100 nM test compound), 0 pmol/ml/μg prt; in data set [3] (1 μM test compound), 0 pmol/ml/μg prt; in data set [3] (10 μM test compound), 0 pmol/ml/μg prt. For the same molecule, the “% degradation … with DPP-IV enzyme” value in data set [4] was determined as 00%. The half-life at 2 μM is above 24 h in data set [4]; above 24 h in data set [5]; 4 h in data set [6]; above 24 h in data set [7]; 2 h in data set [8]. For the same molecule, the “% degradation … with human plasma” value in data set [5] was 00%. Also, in data set [6], the “% degradation … with simulated gastric fluid” value is recorded as 52%. Also, the “% degradation … with simulated intestinal fluid” value in data set [7] was 00%. Moreover, the “% degradation … with liver microsomes” value in data set [8] turned out to be 81%.

For `CCc1cc(OC)ccc1-c1ccc(CC(NC(=O)[C@H](CC(=O)O)NC(=O)[C@H](CO)NC(=O)[C@@H](NC(=O)C(C)(Cc2ccccc2F)NC(=O)[C@@H](NC(=O)CNC(=O)C(CCC#N)NC(=O)C(C)(C)NC(=O)[C@@H](N)Cc2c[nH]cn2)[C@H](C)O)[C@@H](C)O)C(=O)NC(CCCc2ccccc2)C(N)=O)cc1` (single isomer, unassigned) [compound 110], the Insulin secretion in data set [1] (0.1 nM test compd.) is 12.0 ± 0.14 pg/µg/h; in data set [1] (1 nM test compd.), 14.3 ± 0.12 pg/µg/h; in data set [1] (10 nM test compd.), 27.8 ± 0.32 pg/µg/h. For the same molecule, the “Human GLP-1 R activity (cAMP release), % activity with respect to control” value is on record as 38 ± 0.11% in data set [2] (1 nM test compound); 77 ± 0.16% in data set [2] (10 nM test compound); 85 ± 0.11% in data set [2] (100 nM test compound); 94 ± 0.08% in data set [2] (1 μM test compound); 97 ± 0.05% in data set [2] (10 μM test compound). Also, the “Human Glucagon receptor antagonistic activity shown as inhibition of cAMP production of Glucagon peptide” value in data set [3] (1 nM test compound) is reported as 18 ± 0.07 pmol/ml/μg prt; in data set [3] (10 nM test compound), 16 ± 0.01 pmol/ml/μg prt; in data set [3] (100 nM test compound), 12 ± 0.03 pmol/ml/μg prt; in data set [3] (1 μM test compound), 8 ± 0.02 pmol/ml/μg prt; in data set [3] (10 μM test compound), 6 ± 0.08 pmol/ml/μg prt. Also, the “% degradation … with DPP-IV enzyme” value in data set [4] is recorded as 00%. The half-life at 2 μM in data set [4] was above 24 h; in data set [5], above 24 h; in data set [6], 4 h; in data set [7], above 24 h; in data set [8], 2 h. In addition, in data set [5], the “% degradation … with human plasma” value was 00%. For the same molecule, in data set [6], the “% degradation … with simulated gastric fluid” value was 43%. The “% degradation … with simulated intestinal fluid” value in data set [7] is reported as 00%. Besides, the “% degradation … with liver microsomes” value in data set [8] is 84%.
